In patent US4634707A, “5-Pyrimidinecarboxamides and treatment of leukemia and tumors therewith” (Uniroyal Chemical Company, priority 1984, dated 1987):

How the values were obtained:
[1] = system: Ehrlich Ascites carcinoma; settings: Ehrlich Ascites carcinoma in mice; Chem. & Pharm. Bull. (Tokyo) 8, 1021-1028 (1960); cited from earlier work
[2] = system: L1210 leukemia; test: NCI 3LE31, i.p.-implanted L1210 lymphoid leukemia; format: in vivo, DBA/2 mice
Description: The spectrum of antitumor activity of the compound of Example 1 was determined employing a number of standard National Cancer Institute (NCI) protocols. The antitumor activity was determined in vivo against several different tumors, employing various treatment schedules and routes of administration.
Samples of the test compounds of Examples 1-10 and a number of structurally-related control compounds were tested in accordance with National Cancer Institute test protocol 3LE31 (NCI Protocol 1.100, Cancer Chemotherapy Reports Part 3, Vol. 3, No. 2, September 1972) to determine the effects of the several compounds on i.p.-implanted L1210 leukemia (J. Nat'l. Cancer Inst. 13(5):1328, 1953). Each test involved implantation of the leukemia cells in six DBA/2 mice, one sex per experiment, the male mice weighing a minimum of 18 grams and the female mice weighing a minimum of 17 grams, and all of the test animals being within a three gram weight range. The test compound was administered by i.p. injections, in 0.1 ml. doses of diluted ascitic fluid (10^5 cells per dose), commencing one day after the tumor implant and continuing daily for nine days.
The test animals were weighed and survivors recorded on a regular basis during a thirty day test period. The ratio of survival time for the treated and control animals (T/C) was determined as a percentage.
The tests were carried out at varying dosage levels and with varying numbers of repetitions, depending upon the results obtained with each test compoud. […] A reproducible T/C of 150% or higher is considered significant activity.
The number of mice "cured", viz., those surviving from each animal test group after the thirty day test period, is indicated in parenthesis following the T/C percentage data in Table III below: […]

[3] = 100 mg/kg i.p. daily for nine days
[4] = 200 mg/kg i.p. daily for nine days
[5] = Mus musculus, L1210, ip, 25 mg/kg i.p. daily for nine days, read-out: T/C % (survival time treated/control)
[6] = Mus musculus, L1210, ip, 50 mg/kg i.p. daily for nine days, read-out: T/C % (survival time treated/control)
[7] = 25 mg/kg i.p. daily for nine days
[8] = 50 mg/kg i.p. daily for nine days
[9] = Mus musculus, L1210, ip, 100 mg/kg i.p. daily for nine days, read-out: T/C % (survival time treated/control)

SMILES	anti-tumor activity (in words) [1]	T/C % (survival time treated/control) [2, 3]	T/C % (survival time treated/control) [2, 4]	response vs control in vivo at 25 mg/kg [2, 5]	response vs control in vivo at 50 mg/kg [2, 6]	response vs control in vivo at 100 mg/kg [2, 9]	other results
Cn1c(O)c(C(=O)Nc2ccccc2)c(=O)[nH]c1=O [1-methyl derivative]	neither of its 1-methyl or 1-phenyl-substituted derivatives, exhibited anti-tumor activity						
O=C(Nc1ccccc1)c1c(O)n(-c2ccccc2)c(=O)[nH]c1=O [1-phenyl derivative]	neither of its 1-methyl or 1-phenyl-substituted derivatives, exhibited anti-tumor activity						
COC(=O)c1ccccc1NC(=O)c1c(O)n(-c2ccccc2)c(=S)n(-c2ccccc2)c1=O [Control V]		Toxic	Toxic	102%	106%		
O=C(Nc1ccccc1)c1c(O)[nH]c(=S)n(-c2ccccc2)c1=O [Control P]		Toxic	Toxic				T/C % (survival time treated/control) [2, 7]: 110%; T/C % (survival time treated/control) [2, 8]: 116%
O=C(Nc1ccccc1)c1c(O)[nH]c(=O)[nH]c1=O [Control C]							activity in i.p.-implanted lymphoid leukemia test (in words) ([2]; 3LE31, reproducible T/C of 150% or higher is considered significant activity): exhibited significant activity; response vs control in vivo at 400 mg/kg ([2]; Mus musculus, L1210, ip, 400 mg/kg i.p. daily for nine days, read-out: T/C % (survival time treated/control)): 233%
COc1ccc(C)cc1NC(=O)c1c(O)[nH]c(=S)[nH]c1=O [Example 10, 1,2,3,4-tethydro-6-hydroxy-N-(2-methoxy-5-methylphenyl)-4-oxo-2-thioxo-5-pyrimidinecarboxamide]				110%	130%	113%	response vs control in vivo at 200 mg/kg ([2]; Mus musculus, L1210, ip, 200 mg/kg i.p. daily for nine days, read-out: T/C % (survival time treated/control)): 113%
Cn1c(=S)[nH]c(O)c(C(=O)Nc2ccccc2)c1=O [Control H]		Toxic	Toxic				T/C % (survival time treated/control) [2, 7]: Toxic; T/C % (survival time treated/control) [2, 8]: Toxic; response vs control in vivo at 1.56 mg/kg ([2]; Mus musculus, L1210, ip, 1.56 mg/kg i.p. daily for nine days, read-out: T/C % (survival time treated/control)): 97%; response vs control in vivo at 3.12 mg/kg ([2]; Mus musculus, L1210, ip, 3.12 mg/kg i.p. daily for nine days, read-out: T/C % (survival time treated/control)): 98%; response vs control in vivo at 6.25 mg/kg ([2]; Mus musculus, L1210, ip, 6.25 mg/kg i.p. daily for nine days, read-out: T/C % (survival time treated/control)): 98%; response vs control in vivo at 12.5 mg/kg ([2]; Mus musculus, L1210, ip, 12.5 mg/kg i.p. daily for nine days, read-out: T/C % (survival time treated/control)): 98%
O=C(Nc1ccccc1)c1c(O)[nH]c(=S)n(-c2ccccc2)c1=O [Control O]			Toxic	104%	115%	123%	
O=C1NC(=O)C(C(=O)Nc2ccccc2)C(=O)N1 [5-phenylcarbamoylbarbituric acid]	exhibited anti-tumor activity						
O=C(Nc1ccccc1Cl)c1c(O)[nH]c(=S)[nH]c1=O [Example 2, N-(2-chlorophenyl)-1,2,3,4-tetrahydro-6-hydroxy-4-oxo-2-thioxo-5-pyrimidinecarboxamide]				106%	118%	127%	number of mice cured (surviving after thirty day test period) ([2]; 200 mg/kg i.p. daily for nine days, six mice): 1; T/C % (survival time treated/control) ([2]; 400 mg/kg i.p. daily for nine days): Toxic
